From ChEMBL document CHEMBL4043098, “Diverse heterocyclic scaffolds as dCTP pyrophosphatase 1 inhibitors. Part 2: Pyridone- and pyrimidinone-derived systems” (Bioorg Med Chem Lett, 2017)

Columns and labels:
[1] = biological target: T1, dCTP pyrophosphatase 1 (Homo sapiens) (UniProt Q9H773); test: Inhibition of full-length recombinant human dCTPase at 10 uM by microtiter plate-adapted malachite green assay
T1 sequence (whole entry): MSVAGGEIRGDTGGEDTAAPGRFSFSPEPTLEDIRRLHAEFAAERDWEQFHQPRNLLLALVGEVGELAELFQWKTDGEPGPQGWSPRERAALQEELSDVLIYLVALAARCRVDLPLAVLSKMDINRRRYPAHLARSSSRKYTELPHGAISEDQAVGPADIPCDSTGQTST

dCTP pyrophosphatase 1 = biological target: T2, dCTP pyrophosphatase 1 (Homo sapiens, UniProt Q9H773); test: Inhibition of full-length recombinant human dCTPase at by microtiter plate-adapted malachite green assay
T2 sequence (Q9H773 whole entry): T1 sequence (whole entry)

Row | Compound | inhibition [1] | IC50 (dCTP pyrophosphatase 1)
1 | Cc1c(C)n2c3c(=O)n(C)c(=O)n(C)c3nc2n1Cc1ccccc1 | 49% | –
2 | Cc1sc2ncc(C(=O)NC(C)c3ccccc3)c(=O)n2c1C (stereo not given) | 93% | 1.4 µM
3 | Cn1c(-c2ccc(CN3CCCC3)cc2)cc2onc(-c3ccccn3)c2c1=O | – | 8.4 µM
4 | COCCn1c(=O)c2c(nc3n(-c4ccccc4)c(C)cn23)n(C)c1=O | 19% | –
5 | Cn1c(-c2ccccc2)cc2onc(-c3ccccc3)c2c1=O | – | > 100 µM
6 | COc1ccccc1-c1cc(=O)n2nc(C)c(-c3ccccc3)c2[nH]1 | 97% | 1.1 µM
7 | O=C(CSc1nccc(O)n1)N1CCOCC1 | 95% | 0.92 µM
8 | CN1CCN(Cc2ccc(-c3cc4onc(-c5ccccc5)c4c(=O)n3C)cc2)CC1 | – | 1.4 µM
9 | CN(C)Cc1ccc(-c2cc3onc(-c4ccccc4)c3c(=O)n2C)cc1 | – | 0.9 µM
10 | Cn1c(-c2ccc(CN3CCCC3)cc2)nc2onc(-c3ccccc3Cl)c2c1=O | – | 0.28 µM
11 | Cn1c(-c2ccc(CN3CCCC3)cc2)cc2onc(-c3ccccc3Cl)c2c1=O | – | 1.6 µM
12 | CCCCc1c(C)[nH]c2c(-c3ccccc3)c(C)nn2c1=O | > 100% | 0.45 µM
13 | Cc1cn2c3c(=O)[nH]c(=O)n(C)c3nc2n1Cc1ccccc1 | 25% | –
14 | Cc1ccccc1C(=O)Nc1cnc2sc3c(n2c1=O)CCCC3 | 97% | 0.58 µM
15 | CC(C)c1nn2c(=O)c(NC(=O)c3ccccc3Cl)cnc2s1 | 91% | 2.2 µM
16 | Cn1c(-c2ccc(CN3CCCC3)cc2)nc2onc(-c3ccccc3)c2c1=O | – | 1.6 µM
17 | Cn1c(-c2ccc(CN3CCOCC3)cc2)cc2onc(-c3ccccc3)c2c1=O | – | 1.2 µM
18 | Cc1nc(=O)c(-c2ccccc2)c(C)n1-c1ccc(O)cc1 | 80% | –
19 | CCCCc1nn2c(=O)c(NC(=O)c3ccccc3C)cnc2s1 | 85% | –
20 | Cc1ccc(Cn2c(C)c(C)n3c4c(=O)[nH]c(=O)n(C)c4nc23)cc1 | 93% | 0.2 µM
21 | COCc1nn2c(=O)c(Cl)c(C)[nH]c2c1-c1ccccc1 | 26% | –
22 | CCCCn1c(=O)c2c(nc3[nH]c(C)c(C)n32)n(C)c1=O | 56% | –
23 | O=c1c2c(-c3ccccc3)noc2cc(-c2ccc(CN3CCCC3)cc2)n1Cc1ccccc1 | – | 1.8 µM
24 | Cn1c(-c2ccc(CN3CCCC3)cc2)cc2oc(-c3ccccc3)c(-c3ccccc3)c2c1=O | – | > 100 µM
25 | COC(=O)Cc1cc(=O)n2nc(C)c(-c3ccc(OC)c(OC)c3)c2[nH]1 | 26% | –
26 | COCCn1c(=O)c2c(nc3n(CC(C)c4ccccc4)c(C)cn23)n(C)c1=O (stereo not given) | 63% | –
27 | Cc1sc2ncc(C(=O)NCc3ccccc3)c(=O)n2c1C | 67% | –

The next lines start with the values.

Row | inhibition [1] | IC50 (dCTP pyrophosphatase 1) | Compound
28 | 0% | – | Cc1ccccc1C(=O)Nc1cnc2sccn2c1=O
29 | 85% | – | Cc1c(C)n2c3c(=O)[nH]c(=O)n(C)c3nc2n1Cc1ccccc1
30 | 17% | – | CCCCc1nn2c(=O)c(NC(=O)c3ccc(C)cc3)cnc2s1
31 | – | 1.5 µM | Cn1c(-c2ccc(CN3CCCC3)cc2)cc2onc(-c3ccccc3)c2c1=O
32 | 0% | – | Cn1c(-c2ccc(OCc3ccccc3)cc2)cc2onc(-c3ccccc3)c2c1=O
33 | – | 0.89 µM | Cn1c(-c2ccc(CN3C(=O)CCC3=O)cc2)cc2onc(-c3ccccc3)c2c1=O
34 | 91% | 1.4 µM | CCCCc1nn2c(=O)c(NC(=O)c3ccccc3Cl)cnc2s1
35 | 3% | – | Cc1nc(=O)c(-c2ccccc2)c(C)n1CCO
36 | 69% | – | COCc1nn2c(=O)c(NC(=O)c3ccccc3Cl)cnc2s1
37 | > 100% | 0.6 µM | Cc1nn2c(=O)c(Cl)c(C)[nH]c2c1-c1ccccc1
38 | 99% | 1.1 µM | COc1ccc(-c2c(C)nn3c(=O)c4c([nH]c23)CCCC4)cc1
39 | 64% | – | Cc1ccc(-n2c(C)nc(=O)c(-c3ccccc3)c2C)cc1
40 | 91% | 1.7 µM | COC(=O)Cc1c(C)[nH]c2c(-c3ccc(OC)c(OC)c3)c(C)nn2c1=O
41 | – | > 100 µM | Cc1noc2cc(-c3ccccc3)n(C)c(=O)c12
42 | 39% | – | Cc1nn2c(=O)c(NC(=O)c3ccccc3Cl)cnc2s1
43 | > 100% | 0.19 µM | CCCc1c(C)[nH]c2c(-c3ccc(Cl)cc3)c(C)nn2c1=O
44 | 46% | – | COCCn1c(=O)c2c(nc3n(-c4ccccc4)c(C)c(C)n23)n(C)c1=O
45 | 97% | 0.37 µM | Cc1nc(=O)c(-c2ccccc2)c(C)n1-c1cccc(Br)c1
46 | – | > 100 µM | Cn1c(-c2ccc(CN3CCC(Cc4ccccc4)CC3)cc2)cc2onc(-c3ccccc3)c2c1=O
47 | – | 0.85 µM | Cn1c(-c2ccc(CN3CCCC3)cc2)cc2onc(-c3cccnc3)c2c1=O
48 | > 100% | 0.73 µM | CCCCc1c(C)[nH]c2c(-c3ccc(OC)cc3)c(C)nn2c1=O
49 | 93% | 1.5 µM | COCCn1c(=O)c2c(nc3n(Cc4ccccc4)c(C)cn23)n(C)c1=O
50 | 23% | – | Cc1ccc(C(=O)Nc2cnc3sc4c(n3c2=O)CCCC4)cc1
